Results as given in US12617799B2, “Pyrazolopyrimidinone compounds” (Orphagen Pharmaceuticals, Inc., priority 2021, dated 2026).
Where two headings read alike, the source gives them in different places.

Tests used:
[1] = system: rat Leydig tumor cell line R2C; experiment: R2C proliferation assay for SF-1 antagonists (EdU incorporation); type: cell-based; conditions: for EC50: read-out: R2C: EC50
Procedure: SF-1 regulates progenitor cell formation and survival in adult Leydig cells. Anti-proliferative effects of SF-1 antagonists using a SF-1+ rat Leydig tumor cell line, R2C, was investigated. Cell proliferation was measured by detecting DNA incorporation of EdU, a nucleoside analogue that can be fluorescently tagged after cell fixation.
Proliferation of the rat Leydig tumor cell line R2C (ATCC® CCL-97™) was assessed using 5-ethynyl-2′-deoxyuridine (EdU), a nucleoside analogue incorporated during DNA synthesis that can be fluorescently tagged after cell fixation. Cycloheximide, a protein synthesis inhibitor, was used as a positive control for the assay.
R2C cells are maintained according to a protocol provided by the American Type Culture Collection (ATCC). At the time of assay, R2C cells were diluted to 1.0 million cells/mL with culture medium (F12 medium supplemented with 2% FBS and 1% Penicillin-Streptomycin) and 50 uL of cell suspension seeded into each well of 384-well clear bottom plates. The assay plates were incubated in a humidified, 37° C., 6% CO2 atmosphere for 24 hours. Serially diluted SF-1 antagonists, cycloheximide or vehicle (DMSO) were then applied to the R2C cells and incubated in a humidified, 37° C., 6% CO2 atmosphere for two days. EdU (Invitrogen), at a final concentration of 5 μM, was added to the cells and incubated for an additional 16 hours, after which cells were fixed with 10% formalin.
Cells were then washed and permeabilized in 0.5% TritonX-100/PBS solution at RT for 1 hour. EdU incorporation was detected by labeling EdU with 6-FAM azide (Lumiprobe) using a copper (I)-catalyzed Click reaction between an azide and alkyne. The reaction mixture consists of 5 mM ascorbic acid, 1 mM CuSO4, 1 μM 6-FAM azide dissolved in PBS buffer. […] For data normalization, the average fluorescence of DMSO wells was defined as 100%, and average fluorescence of 10 μM cycloheximide wells was defined as 0%. Curve fitting and EC50 determination were performed using the variable slope sigmoidal dose-response analysis.
R2C cells were routinely cultured in R2C culture medium. To assay SF-1 antagonist inhibitory activity, R2C cells were resuspended in the R2C plating medium and plated into a 384 well-clear bottom black plate at 20,000 cells/50 μL/well. […] 10 μL EdU plating solution were then dispensed into each well of assay plate incubated at 37° C., 6% CO2 for two days.
R2C proliferation is measured by detecting the fluorescent labelled EdU. The R2C assay plates were fixed by dispense 60 μL of 10% formalin into each well, and the plates were incubated at room temperature for 1 hour on an orbital shaker. The plates were washed with 80 μL of PBS three times, and cells were permeabilized by treating with 100 μL of PBS-0.5% TritonX-100 at RT for 1 hour on an orbital shaker. The plates were washed with 80 μL of PBS three times, and after the last wash, 25 μL of PBS was dispensed into each well. 25 μL of 2× mounting mix solution was then added into each well of fixed cells, and the plates were incubated at RT for 30 min in the dark on an orbital shaker. The cells were washed with 80 μL of PBS, three times, and after the last wash, 25 μL of PBS was dispensed into each well. […] The cells were washed with 80 μL of PBS, three times, and after the last wash, 50 μL of PBS was dispensed into each well. Assay plates were sealed with aluminum foil, and fluorescence was measured using a Envision microplate reader.
The % of control for the proliferation activity was calculated according to the following equation: % of control=100×(A−C)/(B−C) Equation • A: fluorescence count in the test article-treated R2C cells • B: mean fluorescence count in the vehicle-treated R2C cells • C: mean fluorescence count in the 10 μM cycloheximide-treated R2C cells

human SF-1 = molecular target: T1, human SF-1 (Homo sapiens, UniProt Q13285); experiment: SF-1 Luc assay (Gal4DBD-SF-1LBD luciferase reporter in transfected CHO-K1 cells); type: cell-based; conditions: for EC50: CHO-K1 cells transfected with GAL4-SF-1 plasmid, 40 hours incubation, read-out: hSF-1-Luc: EC50
T1 construct: expressed in transfected cells; host or cells: CHO-K1 cells (Chinese hamster ovary), transient cotransfection with pG5luc
T1 sequence (Q13285 198-461 limits assumed): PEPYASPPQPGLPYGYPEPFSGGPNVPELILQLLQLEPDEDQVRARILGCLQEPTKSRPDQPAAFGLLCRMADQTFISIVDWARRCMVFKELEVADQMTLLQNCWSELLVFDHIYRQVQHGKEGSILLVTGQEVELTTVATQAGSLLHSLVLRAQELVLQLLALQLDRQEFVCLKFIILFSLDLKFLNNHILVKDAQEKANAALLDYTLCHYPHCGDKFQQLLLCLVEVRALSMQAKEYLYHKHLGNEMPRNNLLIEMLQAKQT
Source text: BamHI and XbaI sites introduced by the primers […] (forward) and […] (reverse) were used for subcloning the amplicon into pFA-CMV.
Cells were routinely cultured by splitting them from 1:10 to 1:20. […] Four hours after transfection, cells were trypsinized and suspended to a concentration of 1.6×10^5 cells/ml in supplemented Ham's F-12 media.
Assays: The collected cells were resuspended in the culture medium and plated into a 384 well-white plate (Corning Life Sciences, Acton, MA) at 8,000 cells/50 μL/well.
Measurement of SF-1 Transcriptional Activity: SF-1 transcriptional activity was detected as the intracellular Luc activity using SteadyLite Plus HTS Reporter Gene Assay System. After the measurement of the cell viability, the culture media in the 384 well-plate were completely removed. Then, 30 μL of the Luc substrate solution was added into each well and incubated for 10 min at room temperature. After the incubation, luminescence of each well was measured by a microplate reader.
Calculation of the SF-1 Transcriptional Activity (% of Control): The % of control for the transcriptional activity was calculated according to the following equation: % of control=A/B×100 Equation • A: luminescence count in the test article-treated CHO cells transfected with GAL4-SF-1 plasmid • B: mean luminescence count in the vehicle-treated CHO cells transfected with GAL4-SF-1 plasmid

EC50 ([1]; R2C cells, EdU incorporation) | EC50 (human SF-1) | inhibition at 8 µM (human SF-1; CHO-K1, read-out: hSF-1-Luc: inhibition at 8 uM) | SMILES | EC50 ([1]; R2C) | inhibition at 8 µM ([1]; Leydig)
1000 to 10000 nM | 200 to 1000 nM |  | Cn1nc(Nc2ccc(C(F)(F)F)cc2)c2ncn(CC(=O)N[C@H]3CC[C@H](O)CC3)c(=O)c21 [Compound 28, N-((trans)-4-hydroxycyclohexyl)-2-(1-methyl-7-oxo-3-((4-(trifluoromethyl)phenyl)amino)-1,7-dihydro-6H-pyrazolo[4,3-d]pyrimidin-6-yl)acetamide] |  | 
< 200 nM | < 200 nM |  | Cn1nc(Nc2ccc(C(F)(F)F)cc2)c2ncn(CC(=O)N[C@H]3CC[C@H](OCC(C)(C)O)CC3)c(=O)c21 [Compound 24, N-((trans)-4-(2-hydroxy-2-methylpropoxy)cyclohexyl)-2-(1-methyl-7-oxo-3-((4-(trifluoromethyl)phenyl)amino)-1,7-dihydro-6H-pyrazolo[4,3-d]pyrimidin-6-yl)acetamide] |  | 
< 200 nM | < 200 nM |  | Cn1nc(Nc2ccc(C(F)(F)F)cc2)c2ncn(CC(=O)Nc3ccc(C(C)(C)C(N)=O)cc3)c(=O)c21 [Compound 21, 2-methyl-2-(4-(2-(1-methyl-7-oxo-3-((4-(trifluoromethyl)phenyl)amino)-1,7-dihydro-6H-pyrazolo[4,3-d]pyrimidin-6-yl)acetamido)phenyl)propanamide] |  | 
 |  | 75% | COc1ccc(NC(=O)Cn2cnc3c(Nc4ccc(C(F)(F)F)cn4)n[nH]c3c2=O)cc1F [Compound 63, N-(3-fluoro-4-methoxyphenyl)-2-(7-oxo-3-((5-(trifluoromethyl)pyridin-2-yl)amino)-1,7-dihydro-6H-pyrazolo[4,3-d]pyrimidin-6-yl)acetamide] |  | 19%
< 200 nM | < 200 nM |  | C[C@@H](O)CO[C@H]1CC[C@H](NC(=O)Cn2cnc3c(Nc4ccc(C(F)(F)F)cc4)nn(C)c3c2=O)CC1 [Compound 23, N-((1R,4r)-4-((R)-2-hydroxypropoxy)cyclohexyl)-2-(1-methyl-7-oxo-3-((4-(trifluoromethyl)phenyl)amino)-1,7-dihydro-6H-pyrazolo[4,3-d]pyrimidin-6-yl)acetamide] |  | 
1000 to 10000 nM | < 200 nM |  | COc1ccc(NC(=O)Cn2cnc3c(Nc4ccc(OC(C)C)cc4)nn(C)c3c2=O)cc1F [Compound 70, N-(3-fluoro-4-methoxyphenyl)-2-(3-((4-isopropoxyphenyl)amino)-1-methyl-7-oxo-1,7-dihydro-6H-pyrazolo[4,3-d]pyrimidin-6-yl)acetamide] |  | 
< 200 nM | < 200 nM |  | C[C@H](CO)Oc1ccc(NC(=O)Cn2cnc3c(Nc4ccc(C(F)(F)F)cc4)nn(C)c3c2=O)cc1 (single isomer, unassigned) [Compound 25] |  | 
< 200 nM | < 200 nM |  | C[C@H](O)CO[C@H]1CC[C@H](NC(=O)Cn2cnc3c(Nc4ccc(C(F)(F)F)cc4)nn(C)c3c2=O)CC1 [Compound 22, N-((1S,4r)-4-((S)-2-hydroxypropoxy)cyclohexyl)-2-(1-methyl-7-oxo-3-((4-(trifluoromethyl)phenyl)amino)-1,7-dihydro-6H-pyrazolo[4,3-d]pyrimidin-6-yl)acetamide] |  | 

The remaining lines, values behind:

SMILES | EC50 ([1]; R2C cells, EdU incorporation) | EC50 (human SF-1) | inhibition at 8 µM (human SF-1; CHO-K1, read-out: hSF-1-Luc: inhibition at 8 uM) | EC50 ([1]; R2C) | inhibition at 8 µM ([1]; Leydig)
CCn1nc(Nc2ccc(C(F)(F)F)cc2)c2ncn(CC(=O)N[C@H]3CC[C@H](OC(F)F)CC3)c(=O)c21 [Compound 80, N-((1r,4r)-4-(difluoromethoxy)cyclohexyl)-2-(1-ethyl-7-oxo-3-((4-(trifluoromethyl)phenyl)amino)-1,7-dihydro-6H-pyrazolo[4,3-d]pyrimidin-6-yl)acetamide] |  | < 200 nM |  | < 200 nM | 
Cn1nc(Nc2ccc(C(F)(F)F)cc2)c2ncn(CC(=O)NC(C)(C)C3CCOCC3)c(=O)c21 [Compound 15, 2-(1-methyl-7-oxo-3-((4-(trifluoromethyl)phenyl)amino)-1,7-dihydro-6H-pyrazolo[4,3-d]pyrimidin-6-yl)-N-(2-(tetrahydro-2H-pyran-4-yl)propan-2-yl)acetamide] | 1000 to 10000 nM | 200 to 1000 nM |  |  | 
C[C@@H](NC(=O)Cn1cnc2c(Nc3ccc(C(F)(F)F)cc3)nn(C)c2c1=O)C1CCOCC1 [Compound 16, (R)-2-(1-methyl-7-oxo-3-((4-(trifluoromethyl)phenyl)amino)-1,7-dihydro-6H-pyrazolo[4,3-d]pyrimidin-6-yl)-N-(1-(tetrahydro-2H-pyran-4-yl)ethyl)acetamide] | 1000 to 10000 nM | 200 to 1000 nM |  |  | 
Cn1nc(Nc2ccc(C(F)(F)F)cc2)c2ncn(CC(=O)NC3CCOCC3)c(=O)c21 [Compound 13, 2-(1-methyl-7-oxo-3-((4-(trifluoromethyl)phenyl)amino)-1,7-dihydro-6H-pyrazolo[4,3-d]pyrimidin-6-yl)-N-(tetrahydro-2H-pyran-4-yl)acetamide] | 200 to 1000 nM | < 200 nM |  |  | 
CC(C)(O)CO[C@H]1CC[C@H](NC(=O)Cn2cnc3c(Nc4ccc(C(F)(F)F)cc4)nn(CC(F)(F)F)c3c2=O)CC1 [Compound 92, N-((1r,4r)-4-(2-hydroxy-2-methylpropoxy)cyclohexyl)-2-(7-oxo-1-(2,2,2-trifluoroethyl)-3-((4-(trifluoromethyl)phenyl)amino)-1,7-dihydro-6H-pyrazolo[4,3-d]pyrimidin-6-yl)acetamide] |  | 200 to 1000 nM |  | 200 to 1000 nM | 
Cn1nc(Nc2ccc(C(F)(F)F)cc2)c2ncn(CC(=O)N[C@H]3CC[C@H](OC(F)F)CC3)c(=O)c21 [Compound 32, N-((1r,4r)-4-(difluoromethoxy)cyclohexyl)-2-(1-methyl-7-oxo-3-((4-(trifluoromethyl)phenyl)amino)-1,7-dihydro-6H-pyrazolo[4,3-d]pyrimidin-6-yl)acetamide] |  | < 200 nM |  | < 200 nM | 
CCn1nc(Nc2ccc(C(F)(F)F)cc2)c2ncn(CC(=O)N[C@H]3CC[C@H](OCC(C)(C)O)CC3)c(=O)c21 [Compound 84, 2-(1-ethyl-7-oxo-3-((4-(trifluoromethyl)phenyl)amino)-1,7-dihydro-6H-pyrazolo[4,3-d]pyrimidin-6-yl)-N-((1r,4r)-4-(2-hydroxy-2-methylpropoxy)cyclohexyl)acetamide] |  | < 200 nM |  | < 200 nM | 
Cn1nc(Nc2ccc(C(F)(F)F)cc2)c2ncn(CC(=O)N[C@H]3CC[C@@H](OC(F)F)CC3)c(=O)c21 [Compound 36, N-((1s,4s)-4-(difluoromethoxy)cyclohexyl)-2-(1-methyl-7-oxo-3-((4-(trifluoromethyl)phenyl)amino)-1,7-dihydro-6H-pyrazolo[4,3-d]pyrimidin-6-yl)acetamide] |  | < 200 nM |  | 200 to 1000 nM | 
COc1ccc(NC(=O)Cn2cnc3c(Nc4ccc(C(F)(F)F)cc4)nn(C(C)C)c3c2=O)cc1F [Compound 98, N-(3-fluoro-4-methoxyphenyl)-2-(1-isopropyl-7-oxo-3-((4-(trifluoromethyl)phenyl)amino)-1,7-dihydro-6H-pyrazolo[4,3-d]pyrimidin-6-yl)acetamide] |  | 200 to 1000 nM |  | 1000 to 10000 nM | 
